Laboratory results published in ChEMBL document CHEMBL1201862, “PubChem BioAssay data set” (2004).
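Dose response: 5 concentrations. Exposure: 48 h. Format: 96-well plates. Endpoint: linear interpolation; highest concentration if not reached. GI50: concentration for 50% inhibition of growth.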 Active and inactive are the calls of the source. Cut-off read from the data, not from the text of the source: active = GI50 up to about 1.1 µM and inactive = higher.

Experiments:
Assay in all cases: growth of human tumour cells (NCI), 48 h
786-0 = system: 786-0
A498 = system: A498
A549 = system: A549
ACHN = system: ACHN
BT-549 = system: BT-549
CAKI-1 = system: CAKI-1
COLO 205 = system: COLO 205
DU-145 = system: DU-145
EKVX = system: EKVX
HCC 2998 = system: HCC 2998
HCT-116 = system: HCT-116
HCT-15 = system: HCT-15
HOP-62 = system: HOP-62
HOP-92 = system: HOP-92
Hs-578T = system: Hs-578T
IGROV-1 = system: IGROV-1
K562 = system: K562
KM12 = system: KM12
LOX IMVI = system: LOX IMVI
M14 = system: M14
MCF7 = system: MCF7
MDA-MB-231 = system: MDA-MB-231
MDA-MB-435 = system: MDA-MB-435
MDA-N = system: MDA-N
MOLT-4 = system: MOLT-4
Malme-3M = system: Malme-3M
NCI-H23 = system: NCI-H23
NCI-H460 = system: NCI-H460
NCI-H522 = system: NCI-H522
NCI/ADR-RES = system: NCI/ADR-RES
OVCAR-3 = system: OVCAR-3
OVCAR-4 = system: OVCAR-4
OVCAR-5 = system: OVCAR-5
OVCAR-8 = system: OVCAR-8
PC-3 = system: PC-3
RPMI-8226 = system: RPMI-8226
SF-268 = system: SF-268
SF-295 = system: SF-295
SK-MEL-28 = system: SK-MEL-28
SK-MEL-2 = system: SK-MEL-2
SK-MEL-5 = system: SK-MEL-5
SK-OV-3 = system: SK-OV-3
SN12C = system: SN12C
SNB-19 = system: SNB-19
SNB-75 = system: SNB-75
SR = system: SR
SW-620 = system: SW-620
T47D = system: T47D
TK-10 = system: TK-10
U-251 = system: U-251
UACC-257 = system: UACC-257
UACC-62 = system: UACC-62
UO-31 = system: UO-31
CCRF-CEM = system: CCRF-CEM
HL-60 = system: HL-60
HT-29 = system: HT-29
NCI-H226 = system: NCI-H226
SF-539 = system: SF-539

O=C(Nc1ccc(Cl)cc1)[C-](C(=O)c1ccc(Br)cc1)[n+]1cccc(-c2ccc(Cl)cc2)n1
GI50 (786-0): 2.56 µM (inactive) | GI50 (A498): 9.71 µM (inactive) | GI50 (A549): 3.72 µM (inactive) | GI50 (ACHN): 4.84 µM (inactive) | GI50 (BT-549): 2.54 µM (inactive) | GI50 (CAKI-1): 2.56 µM (inactive) | GI50 (COLO 205): 4.15 µM (inactive) | GI50 (DU-145): 5.45 µM (inactive) | GI50 (EKVX): 3.49 µM (inactive) | GI50 (HCC 2998): 6.78 µM (inactive) | GI50 (HCT-116): 3.09 µM (inactive) | GI50 (HCT-15): 3.93 µM | GI50 (HOP-62): 6.28 µM (inactive) | GI50 (HOP-92): 3.61 µM (inactive) | GI50 (Hs-578T): 4.25 µM (inactive) | GI50 (IGROV-1): 2.77 µM (inactive) | GI50 (K562): 6.3 µM (inactive) | GI50 (KM12): 3.1 µM (inactive) | GI50 (LOX IMVI): 2.97 µM (inactive) | GI50 (M14): 3.68 µM (inactive) | GI50 (MCF7): 1.41 µM (inactive) | GI50 (MDA-MB-231): 31.2 µM (inactive) | GI50 (MDA-MB-435): 3.07 µM (inactive) | GI50 (MDA-N): 4.53 µM (inactive) | GI50 (MOLT-4): 5.05 µM (inactive) | GI50 (Malme-3M): 2.86 µM (inactive) | GI50 (NCI-H23): 2.37 µM (inactive) | GI50 (NCI-H460): 3.44 µM (inactive) | GI50 (NCI-H522): 2.26 µM (inactive) | GI50 (NCI/ADR-RES): 3.53 µM (inactive) | GI50 (OVCAR-3): 2.92 µM (inactive) | GI50 (OVCAR-4): 3.65 µM (inactive) | GI50 (OVCAR-5): 4.24 µM (inactive) | GI50 (OVCAR-8): 3.56 µM (inactive) | GI50 (PC-3): 3.95 µM (inactive) | GI50 (RPMI-8226): 3.81 µM (inactive) | GI50 (SF-268): 4.62 µM (inactive) | GI50 (SF-295): 2.6 µM (inactive) | GI50 (SK-MEL-28): 8.77 µM (inactive) | GI50 (SK-MEL-2): 3.57 µM (inactive) | GI50 (SK-MEL-5): 3.18 µM (inactive) | GI50 (SK-OV-3): 6.35 µM (inactive) | GI50 (SN12C): 2.88 µM (inactive) | GI50 (SNB-19): 8.41 µM (inactive) | GI50 (SNB-75): 6.49 µM (inactive) | GI50 (SR): 2.27 µM (inactive) | GI50 (SW-620): 4.3 µM (inactive) | GI50 (T47D): 1.64 µM (inactive) | GI50 (TK-10): 5.74 µM (inactive) | GI50 (U-251): 3.87 µM (inactive) | GI50 (UACC-257): 3.88 µM (inactive) | GI50 (UACC-62): 3.85 µM (inactive) | GI50 (UO-31): 5.87 µM (inactive)

COc1ccc(-c2cc(-c3cc(C)cc(Br)c3O)no2)cc1
GI50 (786-0): 12 µM (inactive) | GI50 (A498): 3.03 µM (inactive) | GI50 (A549): 13.3 µM (inactive) | GI50 (ACHN): 8.36 µM (inactive) | GI50 (BT-549): 14.9 µM (inactive) | GI50 (CAKI-1): 6.98 µM (inactive) | GI50 (CCRF-CEM): > 10 µM (inactive) | GI50 (COLO 205): > 10 µM (inactive) | GI50 (DU-145): 16.6 µM (inactive) | GI50 (EKVX): 25.2 µM (inactive) | GI50 (HCT-116): 10.3 µM (inactive) | GI50 (HCT-15): 24.1 µM | GI50 (HL-60): 47.9 µM (inactive) | GI50 (HOP-62): 8.67 µM (inactive) | GI50 (HT-29): 31.6 µM (inactive) | GI50 (Hs-578T): 4.86 µM (inactive) | GI50 (IGROV-1): 10.8 µM (inactive) | GI50 (K562): 14.1 µM (inactive) | GI50 (KM12): 22.2 µM (inactive) | GI50 (LOX IMVI): 6.03 µM (inactive) | GI50 (M14): 25.6 µM (inactive) | GI50 (MCF7): 15.7 µM (inactive) | GI50 (MDA-MB-231): 12.4 µM (inactive) | GI50 (MDA-MB-435): 15.9 µM (inactive) | GI50 (MDA-N): 23.6 µM (inactive) | GI50 (MOLT-4): 13.5 µM (inactive) | GI50 (NCI-H226): 5.18 µM (inactive) | GI50 (NCI-H23): 14.7 µM (inactive) | GI50 (NCI-H460): 5.58 µM (inactive) | GI50 (NCI-H522): 3.98 µM (inactive) | GI50 (NCI/ADR-RES): 7.67 µM (inactive) | GI50 (OVCAR-3): 6.38 µM (inactive) | GI50 (OVCAR-4): 3.37 µM (inactive) | GI50 (OVCAR-5): 30.4 µM (inactive) | GI50 (OVCAR-8): 4.31 µM (inactive) | GI50 (PC-3): 4.44 µM (inactive) | GI50 (RPMI-8226): 11.2 µM (inactive) | GI50 (SF-268): 4.17 µM (inactive) | GI50 (SF-295): 3.45 µM (inactive) | GI50 (SF-539): 5.74 µM (inactive) | GI50 (SK-MEL-28): 18.7 µM (inactive) | GI50 (SK-MEL-2): 22.2 µM (inactive) | GI50 (SK-MEL-5): 7 µM (inactive) | GI50 (SK-OV-3): 6.3 µM (inactive) | GI50 (SN12C): 7.59 µM (inactive) | GI50 (SNB-19): 10.5 µM (inactive) | GI50 (SNB-75): 2.86 µM (inactive) | GI50 (SR): 67.5 µM (inactive) | GI50 (SW-620): 16.3 µM (inactive) | GI50 (T47D): 5.38 µM (inactive) | GI50 (TK-10): 19.8 µM (inactive) | GI50 (U-251): 5.66 µM (inactive) | GI50 (UACC-257): 11 µM (inactive) | GI50 (UACC-62): 6.47 µM (inactive) | GI50 (UO-31): 12.5 µM (inactive)

COC(=O)/C=C/c1ccc2nncnc2c1.COC(=O)/C=C\c1ccc2nncnc2c1
GI50 (786-0): > 100 µM (inactive) | GI50 (A498): 71.8 µM (inactive) | GI50 (A549): 21.2 µM (inactive) | GI50 (ACHN): > 100 µM (inactive) | GI50 (BT-549): 60.8 µM (inactive) | GI50 (CAKI-1): > 100 µM (inactive) | GI50 (CCRF-CEM): > 100 µM (inactive) | GI50 (COLO 205): 21.6 µM (inactive) | GI50 (DU-145): 28.7 µM (inactive) | GI50 (EKVX): > 100 µM (inactive) | GI50 (HCT-116): 81.5 µM (inactive) | GI50 (HCT-15): 29 µM | GI50 (HL-60): 96.4 µM (inactive) | GI50 (HOP-62): 70.5 µM (inactive) | GI50 (HT-29): 20 µM (inactive) | GI50 (Hs-578T): 9.14 µM (inactive) | GI50 (IGROV-1): 85.5 µM (inactive) | GI50 (K562): 43 µM (inactive) | GI50 (KM12): 31.6 µM (inactive) | GI50 (LOX IMVI): 33.9 µM (inactive) | GI50 (M14): 21 µM (inactive) | GI50 (MCF7): 42.5 µM (inactive) | GI50 (MDA-MB-231): > 100 µM (inactive) | GI50 (MDA-MB-435): 17.9 µM (inactive) | GI50 (MDA-N): 20.9 µM (inactive) | GI50 (MOLT-4): 55.6 µM (inactive) | GI50 (NCI-H226): > 100 µM (inactive) | GI50 (NCI-H23): 10 µM (inactive) | GI50 (NCI-H460): 10 µM (inactive) | GI50 (NCI-H522): 28.5 µM (inactive) | GI50 (NCI/ADR-RES): 62.4 µM (inactive) | GI50 (OVCAR-3): 32.7 µM (inactive) | GI50 (OVCAR-4): > 100 µM (inactive) | GI50 (OVCAR-5): > 100 µM (inactive) | GI50 (OVCAR-8): 57.9 µM (inactive) | GI50 (PC-3): 34.7 µM (inactive) | GI50 (RPMI-8226): > 100 µM (inactive) | GI50 (SF-268): 75.7 µM (inactive) | GI50 (SF-295): 23.4 µM (inactive) | GI50 (SF-539): 31.9 µM (inactive) | GI50 (SK-MEL-28): 43.8 µM (inactive) | GI50 (SK-MEL-2): 48.6 µM (inactive) | GI50 (SK-MEL-5): 8.17 µM (inactive) | GI50 (SK-OV-3): > 100 µM (inactive) | GI50 (SN12C): > 100 µM (inactive) | GI50 (SNB-19): 57.4 µM (inactive) | GI50 (SNB-75): 18.7 µM (inactive) | GI50 (SR): 56.9 µM (inactive) | GI50 (SW-620): 87.9 µM (inactive) | GI50 (T47D): 98.4 µM (inactive) | GI50 (TK-10): > 100 µM (inactive) | GI50 (U-251): 79.1 µM (inactive) | GI50 (UACC-257): 16.9 µM (inactive) | GI50 (UACC-62): 15.7 µM (inactive) | GI50 (UO-31): 56.1 µM (inactive)
